Assays:
[1] = test system: Human umbilical cord endothelial cells (HUVEC); assay: VEGF-Driven Cellular Proliferation Assay, BrdU Incorporation Assay (VEGF-C); type: cell-based; details: for IC50: Homo sapiens, read-out: VEGF-C pIC50 (converted)
Protocol: VEGF-Driven Cellular Proliferation Assay. BrdU Incorporation Assay (VEGF-C)
Human umbilical cord endothelial cells (HUVEC, Clonetics, CC2519) were passaged in Type I collagen-coated 100-mm petridishes in EGM-MV medium (Clonetics, CC3125) at 37 C in a humidified 5% CO2, 95% air incubator. […] After incubation overnight at 37° C., the media were replaced with 100 ul of M199 serum-free medium containing compounds at various concentrations with 0.6% DMSO and gentamicin. The compounds were diluted in serum-free M199 medium from 10 mM stock solutions prepared in 100% DMS0. […] The cells were pulsed with bromodeoxyuridine (BrdU at 10 uM in serum-free M199) at 37° C. for an additional 24 h. […] The optical density at 450 nm was measured with a multilabel counter (ARVO SX, Wallac). The percent inhibition of cell growth was calculated relative to blank control wells. […] The IC50 values were converted to pIC50 values, i.e., −log IC50 in Molar concentration.

[2] = molecular target: T1, GST-TIE2 (intracellular domains of human TIE2) (Homo sapiens, UniProt Q02763); assay: TIE-2 Enzyme assay (TIE2-E), LANCE method; type: biochemical; details: GST-TIE2, 80 uM ATP, D1–15 peptide; for IC50: read-out: TIE2-E pIC50 (converted)
T1 construct: made in house
T1 sequence (Q02763 762-1104): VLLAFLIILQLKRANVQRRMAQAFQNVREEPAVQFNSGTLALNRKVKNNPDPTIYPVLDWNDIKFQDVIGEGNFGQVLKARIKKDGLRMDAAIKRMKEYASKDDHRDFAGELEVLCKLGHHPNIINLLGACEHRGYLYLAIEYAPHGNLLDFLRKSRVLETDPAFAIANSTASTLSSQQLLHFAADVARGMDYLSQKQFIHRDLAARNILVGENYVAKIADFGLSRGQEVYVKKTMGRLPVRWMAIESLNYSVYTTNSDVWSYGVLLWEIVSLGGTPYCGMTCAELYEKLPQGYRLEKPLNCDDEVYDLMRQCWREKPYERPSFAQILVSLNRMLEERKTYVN
Protocol: TIE-2 Enzyme assay (TIE2-E)
Preactivated GST-TIE2 was incubated for 30 mins at room temperature in 96 well plates with 1 uM D1–15 peptide, 80 uM ATP, 10 mM MgCl2, 0.1 mg/ml BSA and the test compound (diluted from a 10 mM stock in DMSO, final DMSO concentration was 2.4%) in 1 mM HEPES (pH 7.4). The reaction was stopped by the addition of EDTA (final concentration 45 mM). Streptavidin linked-APC (allophycocyanin, Molecular Probe) and Europium-labeled anti-phosphorylated tyrosine antibody (Wallac) were then added at the final concentration of 17 ug/well and 2.1 ug/well, respectively. The APC signal was measured using an ARVO multilabel counter. (Wallac Berthold Japan). The percent inhibition of activity was calculated relative to blank control wells. […] The IC50 values were converted to pIC50 values, i.e., −log IC50 in Molar concentration.

[3] = molecular target: T2, GST-VEGFR2 (Homo sapiens, UniProt P35968); assay: VEGF-R2 Enzyme Assay (VEGF-E), LANCE method; type: biochemical; details: GST-VEGFR2, 75 uM ATP; for IC50: read-out: VEGF-E pIC50 (converted)
T2 construct: GST-VEGFR2, baculovirus expressed recombinant constructs of the intracellular domains of human TIE2 tagged by GST; made in house
T2 sequence (P35968 786-1356 limits assumed): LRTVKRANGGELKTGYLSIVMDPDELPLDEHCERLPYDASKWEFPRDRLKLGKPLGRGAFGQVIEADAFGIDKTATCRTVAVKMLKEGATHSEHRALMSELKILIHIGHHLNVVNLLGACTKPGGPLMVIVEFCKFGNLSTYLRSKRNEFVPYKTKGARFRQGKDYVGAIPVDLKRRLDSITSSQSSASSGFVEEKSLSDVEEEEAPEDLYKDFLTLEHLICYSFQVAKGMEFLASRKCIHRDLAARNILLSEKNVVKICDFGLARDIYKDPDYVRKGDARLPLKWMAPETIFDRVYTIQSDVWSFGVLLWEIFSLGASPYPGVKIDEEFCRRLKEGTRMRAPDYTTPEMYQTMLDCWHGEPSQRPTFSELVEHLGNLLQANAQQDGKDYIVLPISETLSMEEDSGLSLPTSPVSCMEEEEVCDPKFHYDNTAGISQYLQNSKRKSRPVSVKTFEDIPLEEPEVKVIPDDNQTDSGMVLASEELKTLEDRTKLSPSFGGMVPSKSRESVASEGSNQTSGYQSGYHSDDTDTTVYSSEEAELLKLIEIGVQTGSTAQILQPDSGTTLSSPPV
Protocol: VEGF-R2 Enzyme Assay (VEGF-E)
The VEGF enzyme assay used the LANCE method (Wallac) and GST-VEGFR2, baculovirus expressed recombinant constructs of the intracellular domains of human […] tagged by GST. […] The reaction was stopped by the addition of EDTA (final concentration 50 mM). […] The APC signal was measured using an ARVO multilabel counter (Wallac Berthold, Japan). The percent inhibition of activity was calculated relative to blank control wells. […] The IC50 values were converted to pIC50 values, i.e., −log IC50 in Molar concentration.

[4] = molecular target: T3, TIE2 intracellular domain/c-fms extracellular domain (TIE2/c-fms) chimeric protein (Homo sapiens, UniProt Q02763); assay: TIE-2 Autophosphorylation Assay (TIE2-C), ELISA; type: cell-based; details: TIE2/c-fms expressing mouse 3T3 cells, MCSF activation; for IC50: read-out: TIE2-C pIC50 (converted)
T3 construct: TIE2 intracellular domain/c-fms extracellular domain (TIE2/c-fms) chimeric protein; expressed in transfected cells; host or cells: mouse 3T3 cells
T3 sequence (Q02763 770-1124 limits assumed, change not shown): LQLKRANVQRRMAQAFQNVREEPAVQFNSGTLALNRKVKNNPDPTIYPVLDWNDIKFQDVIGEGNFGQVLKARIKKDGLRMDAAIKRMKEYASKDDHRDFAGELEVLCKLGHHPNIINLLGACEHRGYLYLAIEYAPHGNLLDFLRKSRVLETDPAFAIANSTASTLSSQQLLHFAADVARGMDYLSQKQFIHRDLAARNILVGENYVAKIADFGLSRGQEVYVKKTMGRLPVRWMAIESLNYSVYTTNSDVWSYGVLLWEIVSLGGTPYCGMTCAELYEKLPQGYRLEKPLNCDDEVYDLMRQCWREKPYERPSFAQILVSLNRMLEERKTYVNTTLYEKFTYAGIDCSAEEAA
T3 sequence (P07333 20-517 partner limits assumed): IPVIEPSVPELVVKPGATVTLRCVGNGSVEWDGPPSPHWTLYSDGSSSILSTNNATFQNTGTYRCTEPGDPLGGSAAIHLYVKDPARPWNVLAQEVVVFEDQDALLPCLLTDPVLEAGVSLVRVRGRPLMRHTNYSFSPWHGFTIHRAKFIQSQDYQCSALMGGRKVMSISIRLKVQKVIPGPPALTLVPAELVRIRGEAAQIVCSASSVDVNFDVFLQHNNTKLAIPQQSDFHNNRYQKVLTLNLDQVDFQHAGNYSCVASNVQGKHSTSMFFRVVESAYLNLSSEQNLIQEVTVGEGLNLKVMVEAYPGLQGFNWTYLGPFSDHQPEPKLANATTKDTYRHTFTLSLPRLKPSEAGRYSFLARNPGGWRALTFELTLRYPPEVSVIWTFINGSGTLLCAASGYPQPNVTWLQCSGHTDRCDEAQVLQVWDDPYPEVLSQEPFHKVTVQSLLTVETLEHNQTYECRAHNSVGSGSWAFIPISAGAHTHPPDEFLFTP
T3 sequence (P09603 33-190 partner limits assumed): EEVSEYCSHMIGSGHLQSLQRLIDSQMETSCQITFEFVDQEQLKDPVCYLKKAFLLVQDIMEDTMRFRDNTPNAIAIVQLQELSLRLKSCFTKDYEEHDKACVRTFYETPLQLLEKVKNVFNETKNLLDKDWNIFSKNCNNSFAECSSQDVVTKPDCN
Protocol: TIE-2 Autophosphorylation Assay (TIE2-C)
The TIE-2 autophosphorylation assay used an ELISA method and a TIE2 intracellular domain/c-fms extracellular domain (TIE2/c-fms) chimeric protein expressing mouse 3T3 cells. This assay measured the autophosphorylation level of TIE2 protein expressed in cells. The cells were cultured in high glucose DMEM (Sigma) containing 10% serum at 37° C. in a humidified 10% CO2, 90% air incubator. The test compound (diluted from a 10 mM stock in DMSO, final DMSO concentration was 0.1%) was incubated with TIE2/c-fms expressing cells for 1 hr in serum free DMEM in 96 well plates followed by the activation of TIE2/c-fms receptor using c-fms ligand, MCSF (macrophage colony stimulating factor). […] The cell extracts were transferred into Rat anti-c-fms antibody coated 96 well plates and incubated for 12 hrs at 4 degrees. The extracts were removed by aspiration and the plate was incubated with biotinylated anti-phosphotyrosine antibody, PT66 (Sigma) and then with HRP (Horseradish Peroxidase)-labeled streptavidin (PIERCE). The optical density at 450 nm derived from HRP catalyzed TMB was measured with an ARVO multilabel counter. (Wallac Berthold Japan). The percent inhibition of activity was calculated relative to blank control wells. […] The IC50 values were converted to pIC50 values, i.e., −log IC50 in Molar concentration.

Row | Compound | TIE2-E pIC50 [2] | VEGF-E pIC50 [3] | TIE2-C pIC50 [4] | IC50 [2] [nM] | IC50 [3] [nM] | IC50 [4] [nM] | VEGF-C pIC50 [1] | IC50 [1] [nM]
1 | 4-Amino-2-(4-amino-3-(N-methylcarbamoyl)phenyl)-3-(4-methoxyphenyl)furo[2,3-d]pyrimidine [Example 147] | + (+ = pIC50 of 5.0–6.0) | ++ (++ = pIC50 of 6.0–7.0) | ++ (++ = pIC50 of 6.0–7.0) | – | – | – | + (+ = pIC50 of 5.0–6.0) | –
2 | 4-Amino-2-(4-fluoro-3-(methylsulfonylamino)phenyl)-3-(4-methoxyphenyl)furo[2,3-d]pyrimidine [Example 178] | + (+ = pIC50 of 5.0–6.0) | ++ (++ = pIC50 of 6.0–7.0) | ++ (++ = pIC50 of 6.0–7.0) | – | – | – | + (+ = pIC50 of 5.0–6.0) | –
3 | 4-Amino-2-(5-indolyl)-3-(4-(3-pyridyl)phenyl)furo[2,3-d]pyrimidine [Example 153] | ++ (++ = pIC50 of 6.0–7.0) | – | ++ (++ = pIC50 of 6.0–7.0) | – | – | – | + (+ = pIC50 of 5.0–6.0) | –
4 | 4-Amino-3-(4-(2-pyridyl)phenyl)-2-(3-sulfamoylphenyl)furo[2,3-d]pyrimidine [Example 206] | ++ (++ = pIC50 of 6.0–7.0) | +++ (+++ = pIC50 of >7.0) | ++ (++ = pIC50 of 6.0–7.0) | – | – | – | + (+ = pIC50 of 5.0–6.0) | –
5 | 4-Amino-3-(4-(4-tert-butylphenyl)phenyl)-2-(3-sulfamoylphenyl)-furo[2,3-d]pyrimidine [Example 204] | ++ (++ = pIC50 of 6.0–7.0) | – | ++ (++ = pIC50 of 6.0–7.0) | – | – | – | + (+ = pIC50 of 5.0–6.0) | –
6 | 4-Amino-3-(4-methoxyphenyl)-2-(3-(N-(4-pyridyl)carbamoyl)-phenyl)furo[2,3-d]pyrimidine [Example 108] | ++ (++ = pIC50 of 6.0–7.0) | – | ++ (++ = pIC50 of 6.0–7.0) | – | – | – | + (+ = pIC50 of 5.0–6.0) | –
7 | 4-Amino-3-(4-methoxyphenyl)-2-(3-sulfamoylphenyl)furo[2,3-d]pyrimidine [Example 165] | ++ (++ = pIC50 of 6.0–7.0) | +++ (+++ = pIC50 of >7.0) | ++ (++ = pIC50 of 6.0–7.0) | – | – | – | + (+ = pIC50 of 5.0–6.0) | –
8 | Nc1ncnc2occ(-c3ccc(NC(=O)Nc4cc(C(F)(F)F)ccc4F)cc3)c12 [232 (8C), 4-Amino-3-(4-((2-fluoro-5-(trifluoromethyl)phenyl)-aminocarbonylamino)phenyl)furo[2,3-d]pyrimidine] | – | – | – | < 100 | < 100 | < 100 | – | < 100
9 | COc1ccc(-c2oc3ncnc(N)c3c2-c2ccc(NC(=O)Nc3cc(C(F)(F)F)ccc3F)cc2)cc1 [Example 4] | – | – | – | < 100 | < 100 | < 100 | – | < 100
10 | Nc1ncnc2oc(-c3cccc(S(N)(=O)=O)c3)c(-c3ccc(-c4cccc(F)c4F)cc3)c12 [Example 5] | – | – | – | 100 to 1000 | < 100 | 100 to 1000 | – | 1000 to 10000
11 | N#Cc1cccc(-c2oc3ncnc(N)c3c2-c2ccc(NC(=O)Nc3cc(C(F)(F)F)ccc3F)cc2)c1 [Example 8] | – | – | – | < 100 | < 100 | < 100 | – | < 100
12 | Nc1ncnc2oc(-c3ccoc3)c(-c3ccco3)c12 [Example 15] | + (+ = pIC50 of 5.0–6.0) | ++ (++ = pIC50 of 6.0–7.0) | + (+ = pIC50 of 5.0–6.0) | – | – | – | + (+ = pIC50 of 5.0–6.0) | –
13 | Cc1ccc(-c2oc3ncnc(N)c3c2-c2ccc(C)cc2)cc1 [Example 16] | + (+ = pIC50 of 5.0–6.0) | ++ (++ = pIC50 of 6.0–7.0) | + (+ = pIC50 of 5.0–6.0) | – | – | – | + (+ = pIC50 of 5.0–6.0) | –

The next lines start with results.

Row | TIE2-E pIC50 [2] | VEGF-E pIC50 [3] | TIE2-C pIC50 [4] | IC50 [2] [nM] | IC50 [3] [nM] | IC50 [4] [nM] | Compound | VEGF-C pIC50 [1] | IC50 [1] [nM]
14 | – | – | – | 100 to 1000 | 100 to 1000 | 100 to 1000 | NC(=O)c1cccc(-c2oc3ncnc(N)c3c2-c2ccc(-c3ccccc3)cc2)c1 [Example 131, 4-Amino-3-(4-biphenyl)-2-(3-carbamoylphenyl)furo[2,3-d]pyrimidine] | – | 1000 to 10000
15 | – | – | – | 1000 to 10000 | 100 to 1000 | 100 to 1000 | CC(=O)Nc1cccc(-c2oc3ncnc(N)c3c2-c2ccc(-c3ccccc3)cc2)c1 [Example 132, 2-(3-Acetamidophenyl)-4-amino-3-(4-biphenyl)furo[2,3-d]pyrimidine] | – | 1000 to 10000
16 | – | – | – | 100 to 1000 | 100 to 1000 | 100 to 1000 | CN(C)CCNC(=O)Nc1cccc(-c2oc3ncnc(N)c3c2-c2ccc(-c3ccccc3)cc2)c1 [Example 159, 4-Amino-3-(4-biphenyl)-2-((3-(2-(dimethylamino)ethyl)-aminocarbonylamino)phenyl)furo-[2,3-d]pyrimidine] | – | 100 to 1000
17 | – | – | – | 100 to 1000 | < 100 | 100 to 1000 | Nc1ncnc2oc(-c3cccc(S(N)(=O)=O)c3)c(-c3ccc(-c4ccccc4)cc3)c12 [Example 166, 4-Amino-3-(4-biphenyl)-2-(3-sulfamoylphenyl)furo[2,3-d]pyrimidine] | – | 1000 to 10000
18 | – | – | – | 100 to 1000 | < 100 | 100 to 1000 | NC(=O)Nc1cccc(-c2oc3ncnc(N)c3c2-c2ccc(-c3ccccc3)cc2)c1 [Example 184, 4-Amino-2-(3-(aminocarbonylamino)phenyl)-3-(4-biphenyl)furo[2,3-d]pyrimidine] | – | 1000 to 10000
19 | – | – | – | 100 to 1000 | < 100 | 100 to 1000 | COc1ccc(-c2oc3ncnc(N)c3c2-c2ccc(-c3ccccc3)cc2)cc1NS(C)(=O)=O [Example 189, 4-Amino-3-(4-biphenyl)-2-(4-methoxy-3-(methylsulfonylamino)phenyl)furo[2,3-d]pyrimidine] | – | 1000 to 10000
20 | – | – | – | 100 to 1000 | < 100 | 100 to 1000 | NC(=O)Nc1ccc(-c2oc3ncnc(N)c3c2-c2ccc(-c3ccccc3)cc2)cc1 [Example 192, 4-Amino-3-(4-biphenyl)-2-(4-(aminocarbonylamino)phenyl)furo[2,3-d]pyrimidine] | – | 1000 to 10000
21 | – | – | – | 100 to 1000 | – | 100 to 1000 | Nc1ncnc2oc(-c3ccc4[nH]nnc4c3)c(-c3ccc(-c4ccccc4)cc3)c12 [Example 196, 4-Amino-2-(5-benzotriazolyl)-3-(4-biphenyl)furo[2,3-d]pyrimidine] | – | 1000 to 10000
22 | – | – | – | 100 to 1000 | – | 100 to 1000 | Nc1ncnc2oc(-c3ccc4[nH]cnc4c3)c(-c3ccc(-c4ccccc4)cc3)c12 [Example 198, 4-Amino-2-(5-benzimidazolyl)-3-(4-biphenyl)furo[2,3-d]pyrimidine] | – | 1000 to 10000
